Assay results from PMC5809120 (Journal of the American Chemical Society, 2018).

T1: PtNTT2(66-575) (Phaeodactylum tricornutum, UniProt B7FWL8)
T1 sequence (B7FWL8 66-575): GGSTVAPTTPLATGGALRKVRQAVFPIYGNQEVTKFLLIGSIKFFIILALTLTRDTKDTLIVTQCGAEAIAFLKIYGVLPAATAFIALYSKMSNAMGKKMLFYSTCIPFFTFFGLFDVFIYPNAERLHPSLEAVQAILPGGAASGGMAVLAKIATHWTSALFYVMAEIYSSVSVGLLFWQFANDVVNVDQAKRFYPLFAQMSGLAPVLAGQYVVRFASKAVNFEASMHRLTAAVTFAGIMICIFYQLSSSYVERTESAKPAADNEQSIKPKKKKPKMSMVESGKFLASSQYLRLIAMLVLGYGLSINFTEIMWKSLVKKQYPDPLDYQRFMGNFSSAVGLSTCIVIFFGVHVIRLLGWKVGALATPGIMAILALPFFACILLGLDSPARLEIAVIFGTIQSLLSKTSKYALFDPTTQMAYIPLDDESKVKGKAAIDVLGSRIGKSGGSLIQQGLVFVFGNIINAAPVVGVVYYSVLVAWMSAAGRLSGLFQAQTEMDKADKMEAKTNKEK


Experiments:
[1] = biological target: T1, PtNTT2(66-575); test: inhibition of [α-32P]ATP uptake into E. coli YZ2 cells; assay type: cell-based; details: read-out: % inhibition at 500 μM
[2] = substrate: Nc1ncnc2c1ncn2[C@@H]1O[C@H](COP(=O)(O)OP(=O)(O)OP(=O)(O)O)[C@@H](O)[C@H]1O; test: radiolabelled uptake into E. coli YZ2 cells, filter assay; assay type: cell-based, Phaeodactylum tricornutum; details: whole-cell uptake; labelled compound ([α-32P]ATP)

| Molecule | inhibition at 500 µM [1] [%] | Km [2] [µM] |
| --- | --- | --- |
| Nc1nc(=O)n([C@@H]2O[C@H](COP(=O)(O)OP(=O)(O)OP(=O)(O)O)[C@@H](O)[C@H]2O)cc1CO [5-hmCTP] | 76.3 ± 2.9 |  |
| Nc1nc2c(ncn2[C@@H]2O[C@H](COP(=O)(O)OP(=O)(O)OP(=O)(O)O)[C@@H](O)[C@H]2O)c(=O)[nH]1 [GTP] | 60.4 ± 1.4 |  |
| Nc1nc(=O)n([C@H]2C[C@H](O)[C@@H](COP(=O)(O)OP(=O)(O)OP(=O)(O)O)O2)cc1I [5-IdCTP] | 73.6 ± 1.8 |  |
| Nc1nc(=O)n([C@@H]2O[C@H](COP(=O)(O)OP(=O)(O)OP(=O)(O)O)[C@@H](O)[C@H]2O)cc1I [5-ICTP] | 96.6 ± 1.3 |  |
| Nc1ccn([C@@H]2O[C@H](COP(=O)(O)OP(=O)(O)OP(=O)(O)O)[C@@H](O)[C@H]2O)c(=O)n1 [CTP] | 70.5 ± 4.9 |  |
| Nc1nc2c(ncn2[C@H]2C[C@H](O)[C@@H](COP(=O)(O)OP(=O)(O)OP(=O)(O)O)O2)c(=O)[nH]1 [dGTP] | 55.3 ± 3.6 |  |
| Nc1ccn([C@H]2C[C@H](O)[C@@H](COP(=O)(O)OP(=O)(O)OP(=O)(O)O)O2)c(=O)n1 [dCTP] | 76.3 ± 2.8 |  |
| PtNTT2(66-575) (Phaeodactylum tricornutum CCAP 1055/1) (protein) GGSTVAPTTPLATGGALRKVRQAVFPIYGNQEVTKFLLIGSIKFFIILALTLTRDTKDTLIVTQCGAEAIAFLKIYGVLPAATAFIALYSKMSNAMGKKMLFYSTCIPFFTFFGLFDVFIYPNAERLHPSLEAVQAILPGGAASGGMAVLAKIATHWTSALFYVMAEIYSSVSVGLLFWQFANDVVNVDQAKRFYPLFAQMSGLAPVLAGQYVVRFASKAVNFEASMHRLTAAVTFAGIMICIFYQLSSSYVERTESAKPAADNEQSIKPKKKKPKMSMVESGKFLASSQYLRLIAMLVLGYGLSINFTEIMWKSLVKKQYPDPLDYQRFMGNFSSAVGLSTCIVIFFGVHVIRLLGWKVGALATPGIMAILALPFFACILLGLDSPARLEIAVIFGTIQSLLSKTSKYALFDPTTQMAYIPLDDESKVKGKAAIDVLGSRIGKSGGSLIQQGLVFVFGNIINAAPVVGVVYYSVLVAWMSAAGRLSGLFQAQTEMDKADKMEAKTNKEK |  | 186.0 ± 21.1 |

Continued, in another order:

| inhibition at 500 µM [1] [%] | Molecule | Km [2] [µM] |
| --- | --- | --- |
| 56.9 ± 12 | Cc1cn([C@H]2C[C@H](N=[N+]=[N-])[C@@H](COP(=O)(O)OP(=O)(O)OP(=O)(O)O)O2)c(=O)[nH]c1=O [AZTTP] |  |
| 81.3 ± 5.2 | Nc1ccn([C@@H]2O[C@H](COP(=O)(O)OP(=O)(O)OP(=O)(O)O)[C@@H](O)[C@@H]2O)c(=O)n1 [Ara-CTP] |  |
| 47.8 ± 7.9 | Nc1nc2c(ncn2[C@@H]2O[C@H](COP(=O)(O)OP(=O)(O)OP(=O)(O)O)[C@@H](O)[C@@H]2O)c(=O)[nH]1 [Ara-GTP] |  |
| 68.6 ± 5.5 | Nc1nc2c(ncn2COCCOP(=O)(O)OP(=O)(O)OP(=O)(O)O)c(=O)[nH]1 [ACVTP] |  |
